Biological target: T1, IGF-1R (Homo sapiens, UniProt P08069)
T1 construct: expressed in transfected cells; host or cells: Hek293 (Hek293-IGF1R)
Assay: Cellular IGF-1R assay: capture ELISA (MSD) of receptor phosphorylation in Hek293 cells
Assay type: cell-based
Conditions: Hek293-IGF1R cells, 1 h pre-incubation, 10 min IGF stimulation, pIGF1R capture ELISA
Experimental: (§1) In this assay the activity of the compounds of the invention against Insulin-like growth factor I (IGF-I) induced autophosphorylation of the IGF-IR was determined. The assay was conducted as follows: Compound-mediated inhibition of IGF1R and INSR phosphorylation in Hek293 cells transduced with the corresponding receptors was assessed in a capture ELISA format using the MSD (Meso Scale Discovery) platform. Briefly, 30,000 cells washed and diluted in starvation medium (DMEM high glucose supplemented with 0.1% BSA) were seeded in 90 μL per well into 96-well plates pre-coated with poly-D-lysine (0.1 mg/mL in PBS/O). After 24 h incubation at 37° C. and 5% CO2, dose-response effects were determined with 3-fold serial compound dilutions, starting at 10 μM. The final vehicle concentration is 0.1% DMSO in all wells. Following pre-incubation with compounds for 1 h, receptor phosphorylation was triggered by a 10 min exposure to 1.0 ng/μL IGF for Hek293-IGF1R cells, and 5.0 ng/μL insulin for Hek293-InsR cells. Cell lysis was achieved by addition of 80 μL MSD lysis buffer per aspirated well, incubation on ice for 20 min, and a freeze-thaw cycle. Target phosphorylation was then assessed by transferring volumes corresponding to approx. 6 μg Hek293-IGF1R or 0.6 μg Hek293-InsR lysates to MSD assay plates pre-coated with total-IGF1R or total-InsR Abs, respectively. […] Immune complexes were detected by a SULFO-Tag™-coupled anti-rabbit IgG antibody in the presence of 150 μL MSD read-buffer. Light emission at 620 nm triggered by application of electric current was recorded on a MSD Sectorlmager 6000. Acquired raw data (mean Ru-ECL units) were processed in an Excel analysis template. The plate blank (MSD lysis buffer) was subtracted from all data points. The effect of a particular test compound concentration on receptor phosphorylation was expressed relative to the window defined by ligand-stimulated vs unstimulated control cells (set as 100%). IC50 values [nM] were determined using 4-parametric curve-fitting (XLfit software, V4.3.2).
as §1, with “Compound-mediated” for “In this assay the activity of the compounds of the invention against Insulin-like growth factor I (IGF-I) induced autophosphorylation of the IGF-IR was determined. The assay was conducted as follows: Compound-mediated”, “cells trans-duced” for “cells transduced”, “receptors were” for “receptors was”, “concentration was” for “concentration is”, “for Hek293-IGF1 R” for “for Hek293-IGF1R”, “with total-IGF1 R” for “with total-IGF1R”

T1 sequence (P08069 31-1367): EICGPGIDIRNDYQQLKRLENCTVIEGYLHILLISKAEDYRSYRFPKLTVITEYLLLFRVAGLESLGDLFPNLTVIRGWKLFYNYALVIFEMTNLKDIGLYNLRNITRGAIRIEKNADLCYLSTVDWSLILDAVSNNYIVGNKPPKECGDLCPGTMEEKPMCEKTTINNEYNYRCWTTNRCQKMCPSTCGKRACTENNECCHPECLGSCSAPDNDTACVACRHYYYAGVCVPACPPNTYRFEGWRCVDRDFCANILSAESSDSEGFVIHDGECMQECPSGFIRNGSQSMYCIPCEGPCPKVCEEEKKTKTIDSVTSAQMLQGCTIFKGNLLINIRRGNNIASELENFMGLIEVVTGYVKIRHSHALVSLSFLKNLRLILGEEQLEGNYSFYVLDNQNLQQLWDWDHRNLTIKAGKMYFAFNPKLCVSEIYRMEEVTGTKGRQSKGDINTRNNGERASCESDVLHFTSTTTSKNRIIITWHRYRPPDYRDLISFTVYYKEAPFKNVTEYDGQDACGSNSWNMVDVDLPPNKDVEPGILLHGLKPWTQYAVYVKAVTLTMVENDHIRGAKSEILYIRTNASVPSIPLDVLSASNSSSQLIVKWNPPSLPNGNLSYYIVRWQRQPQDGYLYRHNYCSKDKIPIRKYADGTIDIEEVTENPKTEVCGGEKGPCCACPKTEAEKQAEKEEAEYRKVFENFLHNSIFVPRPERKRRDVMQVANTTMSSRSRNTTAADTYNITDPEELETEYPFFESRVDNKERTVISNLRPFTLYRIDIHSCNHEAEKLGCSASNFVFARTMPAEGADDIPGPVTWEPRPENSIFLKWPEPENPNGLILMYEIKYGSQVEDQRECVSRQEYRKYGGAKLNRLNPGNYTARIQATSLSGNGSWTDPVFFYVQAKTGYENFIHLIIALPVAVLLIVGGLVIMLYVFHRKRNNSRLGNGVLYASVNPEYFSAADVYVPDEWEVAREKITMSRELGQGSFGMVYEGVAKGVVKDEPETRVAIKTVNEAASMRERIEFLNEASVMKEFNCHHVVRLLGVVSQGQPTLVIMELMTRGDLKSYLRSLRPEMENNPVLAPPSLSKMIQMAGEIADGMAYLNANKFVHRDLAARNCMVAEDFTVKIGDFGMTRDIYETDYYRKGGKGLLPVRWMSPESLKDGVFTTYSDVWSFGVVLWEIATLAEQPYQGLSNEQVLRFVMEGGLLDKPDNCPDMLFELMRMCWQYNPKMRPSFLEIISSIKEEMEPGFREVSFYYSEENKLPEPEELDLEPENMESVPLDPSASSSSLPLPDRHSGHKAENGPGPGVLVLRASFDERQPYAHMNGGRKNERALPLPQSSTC

Row | Compound | IC50
1 | NC(=O)[C@@H]1CCCN1C[C@H]1C[C@H](n2cc(-c3cccc(OCC4CCCCO4)c3)c3c(N)ncnc32)C1 (stereo partly drawn) [Example 38, (S)-1-(trans-3-{4-amino-5-[3-(tetrahydro-pyran-2-ylmethoxy)-phenyl]-pyrrolo[2,3-d]pyrimidin-7-yl}-cyclobutylmethyl)-pyrrolidine-2-carboxylic acid amide] | 276 nM
2 | CC1(C)CCC(COc2cccc(-c3cn([C@H]4C[C@@H](CN5CCS(=O)(=O)CC5)C4)c4ncnc(N)c34)c2)O1 (single isomer, unassigned) [Example 67] | 15 nM
3 | NC(=O)[C@@H]1COCCN1C[C@H]1C[C@@H](n2cc(-c3cccc(OCC4CCCCO4)c3)c3c(N)ncnc32)C1 (stereo partly drawn) [Example 96, (3S)-cis-4-((3-(4-amino-5-(3-((tetrahydro-2H-pyran-2-yl)methoxy)phenyl)-7H-pyrrolo[2,3-d]pyrimidin-7-yl}-cyclobutyl)methyl)morpholine-3-carboxamide] | 59 nM
4 | NC(=O)[C@@H]1[C@@H]2C[C@@H]2CN1CC1CC(n2cc(-c3cccc(OCC4CCCCO4)c3)c3c(N)ncnc32)C1 (stereo partly drawn) [Example 102, (1R,2S,5S)-3-(((1S,3R)-3-(4-amino-5-(3-((tetrahydro-2H-pyran-2-yl)methoxy)phenyl)-7H-pyrrolo[2,3-d]pyrimidin-7-yl)cyclobutyl)methyl)-3-azabicyclo[3.1.0]hexane-2-carboxamide] | 43 nM
5 | COC(=O)NCC1CC(n2cc(-c3cccc(OCC45CCC(CC4)O5)c3)c3c(N)ncnc32)C1 (stereo not shown) [Example 161, (3-{4-amino-5-[3-(7-oxa-bicyclo[2.2.1]hept-1-ylmethoxy)-phenyl]-pyrrolo[2,3-d]pyrimidin-7-yl}-cyclobutylmethyl)-carbamic acid methyl ester] | 16 nM
6 | NC(=O)[C@H]1CCCN1C[C@H]1C[C@H](n2cc(-c3cccc(OCC45CCC(CC4)O5)c3)c3c(N)ncnc32)C1 [Example 79, (R)-1-(trans-3-{4-amino-5-[3-(7-oxa-bicyclo[2.2.1]hept-1-ylmethoxy)-phenyl]-pyrrolo[2,3-d]pyrimidin-7-yl}cyclobutylmethyl)-pyrrolidine-2-carboxylic acid amide] | 7 nM
7 | CC1(C)CCC(COc2cccc(-c3cn([C@H]4C[C@@H](CN5CCS(=O)(=O)CC5)C4)c4ncnc(N)c34)c2)O1 (single isomer, unassigned) [Example 66] | < 4 nM
8 | CCNC(=O)NCC1CC(n2cc(-c3cccc(OCC45CCC(CC4)O5)c3)c3c(N)ncnc32)C1 (stereo not shown) [Example 163, 1-(3-{4-amino-5-[3-(7-oxa-bicyclo[2.2.1]hept-1-ylmethoxy)-phenyl]-pyrrolo[2,3-d]pyrimidin-7-yl}-cyclobutylmethyl)-3-ethyl-urea] | 153 nM
9 | Nc1ncnc2c1c(-c1cccc(OCC34CCC(CC3)O4)c1)cn2[C@H]1CC[C@@H](CN2CC[S+]([O-])CC2)CC1 [Example 115, 5-[3-(7-Oxa-bicyclo[2.2.1]hept-1-ylmethoxy)-phenyl]-7-cis-[4-(1-oxo-1λ4-thiomorpholin-4-ylmethyl)-cyclohexyl]-7H-pyrrolo[2,3-d]pyrimidin-4-ylamine] | 287 nM
10 | Nc1ncnc2c1c(-c1cccc(OCC34CCC(CC3)O4)c1)cn2[C@H]1C[C@H](N2CC3CC2CN3CCO)C1 (stereo partly drawn) [Example 175, 2-[(trans-3-{4-amino-5[3-(7-oxa-bicyclo[2.2.1]hept-1-ylmethoxy)-phenyl]-pyrrolo[2,3-d]pyrimidin-7-yl}-cyclobutyl)-2,5-diaza-bicyclo[2.2.1]hept-2-yl]-ethanol] | 436 nM
11 | NC[C@H]1CC[C@@H](n2cc(-c3cccc(OCC45CCC(CC4)O5)c3)c3c(N)ncnc32)CC1 [Example 134, 5-(3-(7-oxabicyclo[2.2.1]heptan-1-ylmethoxy)phenyl)-7-((1S,4S)-4-(aminomethyl)cyclohexyl)-7H-pyrrolo[2,3-d]pyrimidin-4-amine] | 227 nM
12 | Nc1ncnc2c1c(-c1cccc(OCC3CCCCO3)c1)cn2[C@H]1C[C@@H](CN2CC(O)C2)C1 (relative stereo) [Example 28, 1-(cis-3-{4-amino-5-[3-(tetrahydro-pyran-2-ylmethoxy)-phenyl]-pyrrolo[2,3-d]pyrimidin-7-yl}-cyclobutylmethyl)-azetidin-3-ol] | 294 nM

More lines, now with the values ahead:

Row | IC50 | Compound
13 | 182 nM | CC(=O)N1CC2CC1CN2[C@H]1C[C@@H](n2cc(-c3cccc(OCC45CCC(CC4)O5)c3)c3c(N)ncnc32)C1 (relative stereo) [Example 173, 1-[5-(cis-3-{4-amino-5-[3-(7-oxa-bicyclo[2.2.1]hept-1-ylmethoxy)-phenyl]-pyrrolo[2,3-d]pyrimidin-7-yl}-cyclobutyl)-2,5-diaza-bicyclo[2.2.1]hept-2-yl]-ethanone]
14 | 364 nM | Nc1ncnc2c1c(-c1cccc(OCC34CCC(CC3)O4)c1)cn2[C@H]1C[C@@]2(CNC(=O)CO2)C1 [Example 220, (E)-2-{4-amino-5-[3-(7-oxa-bicyclo[2.2.1]hept-1-ylmethoxy)-phenyl]-pyrrolo[2,3-d]pyrimidin-7-yl}-5-oxa-8-aza-spiro[3.5]nonan-7-one]
15 | 303 nM | Nc1ncnc2c1c(-c1cccc(OCC34CCC(CC3)O4)c1)cn2[C@H]1C[C@@H](N2CC3CC2CN3CCO)C1 (relative stereo) [Example 174, 2-[5-(cis-3-{4-amino-5-[3-(7-oxa-bicyclo[2.2.1]hept-1-ylmethoxy)-phenyl]-pyrrolo[2,3-d]pyrimidin-7-yl}cyclobutyl)-2,5-diaza-bicyclo[2.2.1]hept-2-yl]-ethanol]
16 | 74 nM | Nc1ncnc2c1c(-c1cccc(OCC34CCC(CC3)O4)c1)cn2C1CC(CN2CC3CC2CS3)C1 [Example 227, 5-[3-(7-Oxa-bicyclo[2.2.1]hept-1-ylmethoxy)-phenyl]-7-{(trans-3-[(1S,4S)-1-(2-thia-5-aza-bicyclo[2.2.1]hept-5-yl)methyl]-cyclobutyl}-7H-pyrrolo[2,3-d]pyrimidin-4-ylamine]
17 | 60 nM | Nc1ncnc2c1c(-c1cccc(OCC34CCC(CC3)O4)c1)cn2C1CC(O)(CN2CCCC2CO)C1 (single isomer, unassigned) [Example 209]
18 | 47 to 112 nM | CC(=O)NC[C@H]1C[C@@H](n2cc(-c3cccc(OCC45CCC(CC4)O5)c3)c3c(N)ncnc32)C1 [Example 178]
19 | 345 nM | 7-[cis-3-(4-methyltetrazoyl-1-ylmethyl)-cyclobutyl]-5-3-(7-oxa-bicyclo[2.2.1]hept-1-ylmethoxy)-phenyl]-7H-pyrrolo[2,3-d]pyrimidin-4-ylamine [Example 179]
20 | 518 nM | Nc1ncnc2c1c(-c1cccc(OCC34CCC(CC3)O4)c1)cn2C1CN(C2CS(=O)(=O)C2)C1 [Example 224, 7-[1-(1,1-dioxo-thietan-3-yl)-azetidin-3-yl]-5-[3-(7-oxa-bicyclo[2.2.1]hept-1-ylmethoxy)-phenyl]-7H-pyrrolo[2,3-d]pyrimidin-4-ylamine]
21 | 211 nM | Nc1ncnc2c1c(-c1cccc(OCC34CCC(CC3)O4)c1)cn2[C@H]1CC[C@H](N)CC1 (relative stereo) [Example 182, 7-(trans-4-Amino-cyclohexyl)-5-[3-(7-oxa-bicyclo[2.2.1]hept-1-ylmethoxy)-phenyl]-7H-pyrrolo[2,3-d]pyrimidin-4-ylamine]
22 | 288 nM | Nc1ncnc2c1c(-c1cccc(OCC34CCC(CC3)O4)c1)cn2C1CC(O)(CN2CCC(O)C2)C1 (single isomer, unassigned) [Example 206]

Reference: patent US20120165310A1, “ETHER DERIVATIVES OF BICYCLIC HETEROARYLS” (NOVARTIS AG, priority 2009, published 2012)
